{"source": "paper PMC4279406", "about": "“Simultaneous targeting of PI3Kδ and a PI3Kδ-dependent MEK1/2-Erk1/2 pathway for therapy in pediatric B-cell acute lymphoblastic leukemia” (Oncotarget, 2014)", "key": {"[1]": {"tested_on": "PI3KC2α, PI3KC2γ, PIP4K2α, PIP5K1α and PIP5K1γ", "experiment": "Selectivity against other lipid kinases", "assay_type": "biochemical", "description": "Utilizing the crystal structure of PI3Kδ, we designed and synthesized a series of compounds in an effort to discover new potent and selective PI3Kδ inhibitors, which bind to PI3Kδ differently from CAL-101. […] The benzimidazole group of X-370 extends into the affinity pocket, where its nitrogen acts as a hydrogen bond acceptor for the primary amine of Lys779. The difluoromethyl group of X-370 points toward Pro758 in the hydrophobic affinity pocket. Instead of wedging between Met752 and Trp760, a binding mode utilized by CAL-101 to generate specificity against PI3Kδ (Figure S1), the pyrrole group of X-370 presses tightly against Trp760. These specific interactions of X-370 with p110δ confer a selective and potent inhibition of PI3Kδ. As expected, X-370 inhibited the kinase activity of PI3Kδ in an ATP-competitive manner, with IC50 increasing in concert with ATP levels (Figure 1C), confirming the binding of X-370 in the ATP pocket. […] More than 1000-fold selectivity was seen against other lipid kinases tested including PI3KC2α, PI3KC2γ, PIP4K2α, PIP5K1α and PIP5K1γ. […]\nFigure 1 Structure of X-370 and its inhibitory activity against lipid kinases (A) Chemical structure of X-370. […] Relative kinase activity in the presence of 10 μM X-370 compared to DMSO control was measured for the rest of lipid kinases. […]"}, "Raji cells": {"tested_on": "Raji cells", "experiment": "Signaling by Western blot", "assay_type": "cell-based, human", "settings": "Raji", "description": "(§1) Raji and SU-DHL-6 cells were treated with X-370 for 1 h (left panel) or treated with 0.5 μM X-370 for indicated times (middle panel). Right panel, Raji cells were incubated in fresh medium following treatment with 0.5 μM X-370 for 1 h. Indicated proteins were detected. (B) Raji-R (the rituximab-resistant derivatives of Raji cells) cells were resistant to X-370. The activity of X-370 on the proliferation of Raji parent and Raji-R cells was determined by CCK-8 assay as described in the methods section. (C) X-370 blocked phosphorylation of Akt but not Erk1/2 in Raji-R cells. Raji-R cells were treated with X-370 for 1h and indicated proteins were detected. Data shown are representative from three independent experiments.\n(§2) Figure 5 Inhibition of Erk1/2 phosphorylation by X-370 contributed to its antiproliferative activity (A-C) X-370 inhibited Erk1/2 phosphorylation via PI3K-PDK1-MEK1/2 cascade but not the PI3K-Gab1 positive feedback loop. (A) Raji and SU-DHL-6 cells were exposed to 1 μM X370 for 3 h and protein fraction from cellular membrane was separated using Native Membrane Protein Extraction Kit and probed. WCL: whole cell lysate. (B) Inhibition of PDK1 or MEK1/2 abrogated Erk1/2 phosphorylation. Cells were treated with pharmacological inhibitors of Raf (AZ 628, PLX4032), MEK1/2 (AZD6244), p90RSK (BI-D1870), PI3Kδ (X-370), PDK1 (BX-912), Akt (MK-2206), mTOR (AZD8055) or mTORC1 (Rapamycin) respectively and indicated proteins were detected. (C) X-370 disrupted the association between PDK1 and MEK1/2. Raji cells were treated with 1 μM X370 for 1 h and cell lysates were immunoprecipitated with anti-PDK1 antibody and indicated proteins were detected. WCL: whole cell lysate. (D-F) Inhibition of Erk1/2 phosphorylation was required for the anti-proliferative activity of X-370. (D) Raji cells ectopically expressing a constitutively activated phospho-mimic MEK1 mutant (MEK1 […] or MEK DD) were incubated with X-370 or AZD6244 for 1 h and then subjected to Western blot. (E) Raji and Raji MEK DD cells were treated with X-370 for 72 h and cell proliferation was detected by CCK-8 assay. (F) Raji MEK DD cells were treated with X-370 and AZD6244 and cell proliferation was detected by CCK-8 assay. Data were show as mean ± SD of three independent experiments. *: p < 0.05 determined by t-tests at each data point. […]\n(§3) Cells were treated as indicated conditions and then subjected to lysate to perform standard Western blot as described previously1. Briefly, whole-cell lysates and SDS-loading buffer diluted cell fractions were analyzed on SDS-PAGE gels. Transfer to nitrocellulose membranes, nonfat milk blocking, probing with indicated primary antibodies and the corresponding HRP-conjugated second antibodies.\n(§4) Chemiluminescence were performed and captured using ImageQuant LAS 4000 (GE healthcare Life Sciences, Piscataway, NJ, USA) and band intensity was measure both with ImageQuant™ TL (GE Healthcare Life Sciences) 2. […]\n(§5) (also on this page, place not known: PI3Kδ -dependent MEK1/2 - B -cell previously 1. whole -cell SDS -loading SDS -PAGE HRP -conjugated (G E A B Val828 Trp760 Thr750 Met752 Tyr813 affinity pocket specificity pocket hinge Glu826 CAL-101 X-370) […]\n(§6) (1 picture or pasted object on this page, not shown here)"}, "SU-DHL-6 cells": {"tested_on": "SU-DHL-6 cells", "experiment": "Signaling by Western blot", "assay_type": "cell-based, human", "description": "as §1, §2, §3, §4, §5, §6"}}}
{"compound": "O=C(N1CCCC1)N1CCC(n2cnc3c(-n4c(C(F)F)nc5ccccc54)nc(N4CCOCC4)nc32)CC1", "note": "[X-370]", "values": [{"measurement": "selectivity for PI3Kδ against other lipid kinases", "setting": "[1]", "result": "More than 1000 fold"}, {"measurement": "phosphorylation of Erk1/2 at T202/Y204", "setting": "Raji cells", "result": "decreased in lockstep with inactivation of Akt"}, {"measurement": "phosphorylation of MEK1/2 at Ser217/221", "setting": "Raji cells; 1 μM, 1 h", "result": "inhibited"}, {"measurement": "phosphorylation of Akt at the membrane", "setting": "Raji cells; 1 μM, 3 h, membrane fraction", "result": "abolished"}, {"measurement": "concentration as low as which Akt phosphorylation was significantly reduced", "setting": "Raji cells; 1 h", "result": 5, "unit": "nM"}, {"measurement": "reversibility of action on PI3K and Erk1/2 after compound removal", "setting": "Raji cells; 0.5 μM 1 h then drug-free medium, restoration after 15 minutes to 1 h", "result": "rapidly reversible"}, {"measurement": "phosphorylation of Erk1/2 at T202/Y204", "setting": "SU-DHL-6 cells; SU-DHL-6", "result": "decreased in lockstep with inactivation of Akt"}, {"measurement": "phosphorylation of Akt at the membrane", "setting": "SU-DHL-6 cells; SU-DHL-6, 1 μM, 3 h, membrane fraction", "result": "abolished"}, {"measurement": "concentration as low as which Akt phosphorylation was significantly reduced", "setting": "SU-DHL-6 cells; SU-DHL-6, 1 h", "result": 5, "unit": "nM"}, {"measurement": "reversibility of action on PI3K and Erk1/2 after compound removal", "setting": "SU-DHL-6 cells; SU-DHL-6, 0.5 μM 1 h then drug-free medium, restoration after 15 minutes to 1 h", "result": "rapidly reversible"}]}
